Structures are written as SMILES.

The subject of the first test is NCI-H1623. Nature of the test: relative viability (nuclei count vs DMSO), 5 days (fraction); higher = more cells survive. Particulars: first compound 0.6325 µM. In outline:
(§1)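 Relative viability was taken as the ratio of nuclei in treated wells to nuclei in vehicle wells. Lung cancer cell lines in 1536-well plates received compounds by pin tool one day after seeding, either one drug alone or a fixed anchor-drug dose plus five library-drug doses (not always all listed) in √10 steps. Nuclei were counted on 4× images after 5 days of treatment, and values are medians of duplicate plates.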
`COCC1(CO)C(=O)C2CCN1CC2` (centres undefined) [PRIMA-1MET] + Cc1cc(Nc2cc(N3CCN(C)CC3)nc(Sc3ccc(NC(=O)C4CC4)cc3)n2)n[nH]1 [Tozasertib] (partner 0.1 µM): the relative viability is 0.449.
Turning to `COCC1(CO)C(=O)C2CCN1CC2` (centres undefined) [PRIMA-1MET] + COc1cc2c(Oc3ccc(NC(=O)C4(C(=O)Nc5ccc(F)cc5)CC4)cc3F)ccnc2cc1OCCCN1CCOCC1 [Foretinib] (partner 0.25 µM), the relative viability turned out to be 0.819.
Regarding `COCC1(CO)C(=O)C2CCN1CC2` (centres undefined) [PRIMA-1MET] + COc1cccc2cc(-c3nc([C@H]4CC[C@H](C(=O)O)CC4)n4ncnc(N)c34)[nH]c12 [OSI-027] (partner 0.5 µM), the relative viability was determined as 0.405.
Still for that read-out and setting: under `COCC1(CO)C(=O)C2CCN1CC2` (centres undefined) [PRIMA-1MET] + N=C(N)NC(=N)NCCc1ccccc1 [Phenformin] (partner 250 µM) stands 0.603; under `COCC1(CO)C(=O)C2CCN1CC2` (centres undefined) [PRIMA-1MET] + Cc1nc(Nc2ncc(C(=O)Nc3c(C)cccc3Cl)s2)cc(N2CCN(CCO)CC2)n1 [Dasatinib] (partner 0.075 µM), 0.563.

The same test, now with this note: first compound 2 µM.
For the compound `COCC1(CO)C(=O)C2CCN1CC2` (centres undefined) [PRIMA-1MET] + Cc1cc(Nc2cc(N3CCN(C)CC3)nc(Sc3ccc(NC(=O)C4CC4)cc3)n2)n[nH]1 [Tozasertib] (partner 0.1 µM), the relative viability was 0.445.
In turn, `COCC1(CO)C(=O)C2CCN1CC2` (centres undefined) [PRIMA-1MET] + COc1cc2c(Oc3ccc(NC(=O)C4(C(=O)Nc5ccc(F)cc5)CC4)cc3F)ccnc2cc1OCCCN1CCOCC1 [Foretinib] (partner 0.25 µM) came in with a relative viability of 0.744.
On to `COCC1(CO)C(=O)C2CCN1CC2` (centres undefined) [PRIMA-1MET] + COc1cccc2cc(-c3nc([C@H]4CC[C@H](C(=O)O)CC4)n4ncnc(N)c34)[nH]c12 [OSI-027] (partner 0.5 µM), for which the relative viability amounted to 0.445.
`COCC1(CO)C(=O)C2CCN1CC2` (centres undefined) [PRIMA-1MET] + N=C(N)NC(=N)NCCc1ccccc1 [Phenformin] (partner 250 µM) yielded a relative viability of 0.544.
For `COCC1(CO)C(=O)C2CCN1CC2` (centres undefined) [PRIMA-1MET] + Cc1nc(Nc2ncc(C(=O)Nc3c(C)cccc3Cl)s2)cc(N2CCN(CCO)CC2)n1 [Dasatinib] (partner 0.075 µM), the relative viability turned out to be 0.518.

Still in this test, the particulars now being: first compound 6.325 µM.
`COCC1(CO)C(=O)C2CCN1CC2` (centres undefined) [PRIMA-1MET] + Cc1cc(Nc2cc(N3CCN(C)CC3)nc(Sc3ccc(NC(=O)C4CC4)cc3)n2)n[nH]1 [Tozasertib] (partner 0.1 µM) came in with a relative viability of 0.452.
In turn, `COCC1(CO)C(=O)C2CCN1CC2` (centres undefined) [PRIMA-1MET] + COc1cc2c(Oc3ccc(NC(=O)C4(C(=O)Nc5ccc(F)cc5)CC4)cc3F)ccnc2cc1OCCCN1CCOCC1 [Foretinib] (partner 0.25 µM) displayed a relative viability of 0.905.
The same measure, in the same setting: under `COCC1(CO)C(=O)C2CCN1CC2` (centres undefined) [PRIMA-1MET] + COc1cccc2cc(-c3nc([C@H]4CC[C@H](C(=O)O)CC4)n4ncnc(N)c34)[nH]c12 [OSI-027] (partner 0.5 µM) stands 0.42; under `COCC1(CO)C(=O)C2CCN1CC2` (centres undefined) [PRIMA-1MET] + N=C(N)NC(=N)NCCc1ccccc1 [Phenformin] (partner 250 µM), 0.503; under `COCC1(CO)C(=O)C2CCN1CC2` (centres undefined) [PRIMA-1MET] + Cc1nc(Nc2ncc(C(=O)Nc3c(C)cccc3Cl)s2)cc(N2CCN(CCO)CC2)n1 [Dasatinib] (partner 0.075 µM), 0.577.

Still in this test, the particulars now being: first compound 20 µM.
`COCC1(CO)C(=O)C2CCN1CC2` (centres undefined) [PRIMA-1MET] + Cc1cc(Nc2cc(N3CCN(C)CC3)nc(Sc3ccc(NC(=O)C4CC4)cc3)n2)n[nH]1 [Tozasertib] (partner 0.1 µM) showed a relative viability of 0.367.
Turning to `COCC1(CO)C(=O)C2CCN1CC2` (centres undefined) [PRIMA-1MET] + COc1cc2c(Oc3ccc(NC(=O)C4(C(=O)Nc5ccc(F)cc5)CC4)cc3F)ccnc2cc1OCCCN1CCOCC1 [Foretinib] (partner 0.25 µM), the relative viability amounted to 0.701.
As to `COCC1(CO)C(=O)C2CCN1CC2` (centres undefined) [PRIMA-1MET] + COc1cccc2cc(-c3nc([C@H]4CC[C@H](C(=O)O)CC4)n4ncnc(N)c34)[nH]c12 [OSI-027] (partner 0.5 µM), the relative viability came to 0.303.
Same read-out and setting: in the case of `COCC1(CO)C(=O)C2CCN1CC2` (centres undefined) [PRIMA-1MET] + N=C(N)NC(=N)NCCc1ccccc1 [Phenformin] (partner 250 µM) it was 0.457.
Still for that read-out and setting: under `COCC1(CO)C(=O)C2CCN1CC2` (centres undefined) [PRIMA-1MET] + Cc1nc(Nc2ncc(C(=O)Nc3c(C)cccc3Cl)s2)cc(N2CCN(CCO)CC2)n1 [Dasatinib] (partner 0.075 µM) stands 0.519.

The next test concerns SW 900. Described as above. Particulars: first compound 0.2 µM. In outline: as §1
Compound `COCC1(CO)C(=O)C2CCN1CC2` (centres undefined) [PRIMA-1MET] + Cc1cc(Nc2cc(N3CCN(C)CC3)nc(Sc3ccc(NC(=O)C4CC4)cc3)n2)n[nH]1 [Tozasertib] (partner 0.1 µM) yielded a relative viability of 0.784.
`COCC1(CO)C(=O)C2CCN1CC2` (centres undefined) [PRIMA-1MET] + COc1cc2c(Oc3ccc(NC(=O)C4(C(=O)Nc5ccc(F)cc5)CC4)cc3F)ccnc2cc1OCCCN1CCOCC1 [Foretinib] (partner 0.25 µM) came in with a relative viability of 0.928.
Still for that read-out and setting: in the case of `COCC1(CO)C(=O)C2CCN1CC2` (centres undefined) [PRIMA-1MET] + COc1cccc2cc(-c3nc([C@H]4CC[C@H](C(=O)O)CC4)n4ncnc(N)c34)[nH]c12 [OSI-027] (partner 0.5 µM) it was 0.54.
For the compound `COCC1(CO)C(=O)C2CCN1CC2` (centres undefined) [PRIMA-1MET] + N=C(N)NC(=N)NCCc1ccccc1 [Phenformin] (partner 250 µM), the relative viability is 0.665.
For the compound `COCC1(CO)C(=O)C2CCN1CC2` (centres undefined) [PRIMA-1MET] + Cc1nc(Nc2ncc(C(=O)Nc3c(C)cccc3Cl)s2)cc(N2CCN(CCO)CC2)n1 [Dasatinib] (partner 0.075 µM), the relative viability worked out at 0.632.

Still in this test, the particulars now being: first compound 0.6325 µM.
In the case of `COCC1(CO)C(=O)C2CCN1CC2` (centres undefined) [PRIMA-1MET] + Cc1cc(Nc2cc(N3CCN(C)CC3)nc(Sc3ccc(NC(=O)C4CC4)cc3)n2)n[nH]1 [Tozasertib] (partner 0.1 µM), the relative viability was found to be 0.465.
Turning to `COCC1(CO)C(=O)C2CCN1CC2` (centres undefined) [PRIMA-1MET] + COc1cc2c(Oc3ccc(NC(=O)C4(C(=O)Nc5ccc(F)cc5)CC4)cc3F)ccnc2cc1OCCCN1CCOCC1 [Foretinib] (partner 0.25 µM), the relative viability amounted to 1.13.
The compound `COCC1(CO)C(=O)C2CCN1CC2` (centres undefined) [PRIMA-1MET] + COc1cccc2cc(-c3nc([C@H]4CC[C@H](C(=O)O)CC4)n4ncnc(N)c34)[nH]c12 [OSI-027] (partner 0.5 µM) displayed a relative viability of 0.451.
In turn, `COCC1(CO)C(=O)C2CCN1CC2` (centres undefined) [PRIMA-1MET] + N=C(N)NC(=N)NCCc1ccccc1 [Phenformin] (partner 250 µM) registered a relative viability of 0.61.
